Experimental data reported in the supplement of paper PMC10307832.

Tests used:
Assay in all cases: relative viability (nuclei count vs DMSO), 5 days (fraction); higher = more cells survive
IPA-3 + Vorinostat = compound: C1=CC=C2C(=C1)C=CC(=C2SSC3=C(C=CC4=CC=CC=C43)O)O [IPA-3] + O=C(CCCCCCC(=O)Nc1ccccc1)NO [Vorinostat] (partner 1 µM)
In short: (§1)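 Five library-drug doses in √10 steps were combined with a fixed anchor-drug dose, or a single drug was given alone, by pin tool to lung cancer cell lines in 1536-well plates the day after seeding. Nuclei were stained and counted after 5 days. Relative viability is the nuclei count in treated wells over that in vehicle wells, taken as the median of duplicate plates.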

RAF265 + Pemetrexed = compound: Cn1c(Nc2ccc(C(F)(F)F)cc2)nc2cc(Oc3ccnc(-c4ncc(C(F)(F)F)[nH]4)c3)ccc21 [RAF265] + Nc1nc2[nH]cc(CCc3ccc(C(=O)N[C@@H](CCC(=O)O)C(=O)O)cc3)c2c(=O)[nH]1 [Pemetrexed] (partner 0.2 µM)
In short: as §1

RAF265 + Bortezomib = compound: Cn1c(Nc2ccc(C(F)(F)F)cc2)nc2cc(Oc3ccnc(-c4ncc(C(F)(F)F)[nH]4)c3)ccc21 [RAF265] + CC(C)C[C@H](NC(=O)[C@H](Cc1ccccc1)NC(=O)c1cnccn1)B(O)O [Bortezomib] (partner 0.002 µM)
In short: as §1

RAF265 + Foretinib = compound: Cn1c(Nc2ccc(C(F)(F)F)cc2)nc2cc(Oc3ccnc(-c4ncc(C(F)(F)F)[nH]4)c3)ccc21 [RAF265] + COc1cc2c(Oc3ccc(NC(=O)C4(C(=O)Nc5ccc(F)cc5)CC4)cc3F)ccnc2cc1OCCCN1CCOCC1 [Foretinib] (partner 0.25 µM)
In short: as §1

Cell Line: UMC-11
- relative viability (IPA-3 + Vorinostat; first compound 0.2 µM): 0.395
- relative viability (IPA-3 + Vorinostat; first compound 0.6325 µM): 0.425
- relative viability (IPA-3 + Vorinostat; first compound 2 µM): 0.389
- relative viability (IPA-3 + Vorinostat; first compound 6.325 µM): 0.394
- relative viability (IPA-3 + Vorinostat; first compound 20 µM): 0.409
- relative viability (RAF265 + Pemetrexed; first compound 0.01 µM): 0.689
- relative viability (RAF265 + Pemetrexed; first compound 0.03162 µM): 0.854
- relative viability (RAF265 + Pemetrexed; first compound 0.1 µM): 0.764
- relative viability (RAF265 + Pemetrexed; first compound 0.3162 µM): 0.761
- relative viability (RAF265 + Pemetrexed; first compound 1 µM): 0.639
- relative viability (RAF265 + Bortezomib; first compound 0.01 µM): 0.624
- relative viability (RAF265 + Bortezomib; first compound 0.03162 µM): 0.724
- relative viability (RAF265 + Bortezomib; first compound 0.1 µM): 0.758
- relative viability (RAF265 + Bortezomib; first compound 0.3162 µM): 0.745
- relative viability (RAF265 + Bortezomib; first compound 1 µM): 0.537
- relative viability (RAF265 + Foretinib; first compound 0.01 µM): 1.02
- relative viability (RAF265 + Foretinib; first compound 0.03162 µM): 1.05
- relative viability (RAF265 + Foretinib; first compound 0.1 µM): 0.972
- relative viability (RAF265 + Foretinib; first compound 0.3162 µM): 0.992
- relative viability (RAF265 + Foretinib; first compound 1 µM): 0.926
